Test results: patent US6545007B2, “Methods for inhibiting the transmission of HIV using topically applied substituted 6-benzyl-4-oxopyrimidines” (Idenix (Cayman) Limited, priority 2000, dated 2003)
Read-outs that look alike come from different tables or passages of the source.

Legend:
HIV-1 (IIIB strain) = assay type: cell-based; conditions: for EC50: anti-HIV-1 activity; for SI: selectivity index (CC50/EC50)
Experimental: Compounds. Compounds were solubilized in DMSO at 200 mM and then diluted into culture medium.
(§1) Cells and viruses. MT-4, C8166,H9/IIIB and CEM cells were grown at 37° C. in a 5% CO2 atmosphere in RPMI 1640 medium, supplemented with 10% fetal calf serum (FCS), 100 IU/mL penicillin and 100 μg/mL streptomycin. Cell cultures were checked periodically for the absence of mycoplasma contamination with a MycoTect Kit (Gibco). Human immunodeficiency virus type-I (HIV-1, IIIB strain) was obtained from supernatants of persistently infected H9/IIIB cells.
HIV Titration. Titration of HIV was performed in C8166 cells by the standard limiting dilution method (dilution 1:2, four replica wells per dilution) in 96-well plates. The infectious virus titre was determined by light microscope scoring of cytopathicity after 4 days of incubation and the virus titres were expressed as CCID50/mL.
(§2) Anti-HIV Assays. Activity of the compounds against HIV-1 and HIV-2 multiplication in acutely infected cells was based on the inhibition of virus-induced cytopathicity in MT-4 and C8166 cells, respectively. Briefly, 50 μL of culture medium containing 1×10^4 cells were added to each well of flat-bottom microtiter trays containing 50 μl of culture medium with or without various concentrations of the test compounds. Then 20 μL of an HIV suspension containing 100 CCID50 were added. After a 4-day incubation at 37° C., the number of viable cells was determined by the 3-(4,5-dimethylthiazol-[…])-2,5-diphenyltetrazolium bromide (MTT) method. Cytotoxicity of the compounds was evaluated in parallel with their antiviral activity. It was based on the viability of mock-infected cells, as monitored by the MTT method.

mock-infected MT-4 cells = assay: Cytotoxicity: viability of mock-infected cells by the MTT method; assay type: cell-based, human
Experimental: as §1, §2

HIV-1 = conditions: MT-4 cells infected with very high virus load; p24 ELISA of cell-free supernatants at 4 day intervals for 4 weeks
Source text: To evaluate the antiviral activity of test compounds the following cell types were used: T lymphocytes (PBLs) and monocytes from peripheral blood of healthy donors; U937, human monocyte cell line permissive for HIV replication; C8166 and MT-4, human CD^4+ T-cell lines permissive for HIV replication; H9, human CD4+ T-cell line permissive for HIV replication, but partially resistant to its cytopathic effect; H9/IIIB, subclone of H9 cells chronically infected with HIV-1 (strain IIIB). […] Cells were grown in RPMI-1640 (H9, MT-4, C8166, U937, PBMC, PBL) or in DMEM (HeLa, ME-180, fibroblasts) medium supplemented with 10% FCS, 100 units/mL penicillin and 100 μg/mL streptomycin. The cultures were incubated at 37° C. in a humidified, 5% CO2 atmosphere. The absence of mycoplasma contamination was periodically checked by the Hoechst staining method.
HIV-1(strains IIIB, NM, RF, Ba-L) and HIV-2 (ROD strain) were obtained from the supernatant of persistently infected cells. The CBL-20 strain of HIV-2, kindly obtained from “MRC AIDS Directed Program Reagent Project”, was propagated in MT-4 cells. Clinical isolates of HIV-1 from peripheral blood and from seminal fluid, were propagated in PBLs. The HIV stock solutions were titrated in C8166 cells and kept at −80° C. until use.
The levels of p24 viral protein were determined in the cell-free culture supernatants by the HIV-1 p24 antigen enzyme-linked immunosorbent assay kit (ELISA, Abbott).
To evaluate the ability of compounds to extinguish the infection, the following experimental conditions were followed. 10^6 MT-4 cells were infected at 20° C. for 1 hr with a very high virus load (up to 10 CCID50/cell; 1 CCID50=25-250 infectious virions), in the absence or in the presence of test compounds. […] For 4 weeks, at 4 days intervals, the anti-HIV activity of test compounds, alone and in combination, was evaluated by determining the following parameters: p24 levels; virus-induced cytopathogenicity; infectious virus yield; DNA and RNA viral sequences (by PCR).

[1] = acutely infected MT-4 cells, MTT

Row | SMILES | EC50 (HIV-1 (IIIB strain); [1]) [nM] | CC50 (mock-infected MT-4 cells; MTT) [nM] | also measured
1 | CSCSc1nc(Cc2c(F)cccc2F)cc(=O)[nH]1 [MC 1161, 6-(2,6-Difluorophenyhnethyl)-3,4-dihydro-2-(methylthiomethyl)thiopyrimidin-4-(3H)-one] | 800 | > 200000 | –
2 | CSCSc1nc(Cc2c(F)cccc2F)c(C)c(=O)[nH]1 [MC 1162, 6-(2,6-Difluorophenylmethyl)-3,4-dihydro-5-methyl-2-(methylthiomethyl)thiopyrimidin-4(3H)-one] | 120 | 30000 | –
3 | CNc1nc(Cc2c(F)cccc2F)cc(=O)[nH]1 [MC 1167] | – | – | EC50 (HIV-1 (IIIB strain); HIV-1-infected MT-4 cells): 1500 nM; SI (HIV-1 (IIIB strain)): >133; CC50 (mock-infected MT-4 cells): > 200000 nM
4 | CNc1nc(Cc2c(F)cccc2F)c(C)c(=O)[nH]1 [MC 1168] | – | – | EC50 (HIV-1 (IIIB strain); HIV-1-infected MT-4 cells): 400 nM; SI (HIV-1 (IIIB strain)): 335; CC50 (mock-infected MT-4 cells): 135000 nM
5 | CN1CCN(c2nc(Cc3c(F)cccc3F)cc(=O)[nH]2)CC1 [MC 1183] | 7100 | > 200000 | –
6 | CCCNc1nc(Cc2c(F)cccc2F)c(C)c(=O)[nH]1 [MC 1186] | – | – | EC50 (HIV-1 (IIIB strain); HIV-1-infected MT-4 cells): 20 nM; SI (HIV-1 (IIIB strain)): >10,000; CC50 (mock-infected MT-4 cells): > 200000 nM
7 | O=c1cc(Cc2c(F)cccc2F)nc(N2CCOCC2)[nH]1 [MC 1188] | 600 | > 200000 | –
8 | O=c1cc(Cc2c(F)cccc2F)nc(N2CCCC2)[nH]1 [MC 1196] | 2100 | > 200000 | –
9 | CCN(CC)c1nc(Cc2c(F)cccc2F)cc(=O)[nH]1 [MC 1202] | 260 | > 200000 | –
10 | Cc1c(Cc2c(F)cccc2F)nc(N2CCN(C)CC2)[nH]c1=O [MC 1203] | 360 | > 200000 | –
11 | CCCN(CCC)c1nc(Cc2c(F)cccc2F)cc(=O)[nH]1 [MC 1204] | 3800 | > 200000 | –
12 | Cc1c(C(C)c2c(F)cccc2F)nc(N(C)C)[nH]c1=O (stereo not drawn) [MC 1220] | – | – | concentration able to maintain a sustained reduction of p24 in the culture supernatants (HIV-1): 3.5 µM
13 | Cc1c(C(C)c2c(F)cccc2F)nc(SC2CCCC2)[nH]c1=O (stereo not drawn) [MC-1047, 2-Cyclopentylthio-6-{1-(2,6-difluorophenyl)ethyl}-3,4-dihydro-5-methylpyrimidin-4(3H)-one] | – | – | concentration able to maintain a sustained reduction of p24 in the culture supernatants (HIV-1): 10 µM; EC50 (HIV-1 (IIIB strain); HIV-1-infected MT-4 cells): 9 nM; SI (HIV-1 (IIIB strain)): >22,222; CC50 (mock-infected MT-4 cells): > 200000 nM
14 | Cc1ccnc2c1NC(=O)c1cccnc1N2C1CC1 [Nevirapine, 11-cyclopropyl-5,11-dihydro-4-methyl-6H-dipyridol{3,2-b:2′,3′-e}diazepin-6-one, reference compound] | – | – | concentration able to maintain a sustained reduction of p24 in the culture supernatants (HIV-1): 300 µM

Continued by falling EC50 (HIV-1 (IIIB strain); [1]), values first:

Row | EC50 (HIV-1 (IIIB strain); [1]) [nM] | SMILES | CC50 (mock-infected MT-4 cells; MTT) [nM] | also measured
15 | 110 | CCc1c(Cc2c(F)cccc2F)nc(SCSC)[nH]c1=O [MC 1157] | 50000 | –
16 | 110 | CNc1nc(C(C)c2c(F)cccc2F)cc(=O)[nH]1 (stereo not drawn) [MC 1178] | 106000 | –
17 | 90 | Cc1c(Cc2c(F)cccc2F)nc(N2CCSCC2)[nH]c1=O [MC 1206] | > 200000 | –
18 | 50 | CN(C)c1nc(Cc2c(F)cccc2F)cc(=O)[nH]1 [MC 1182, 6-(2,6-Difluorophenylmethyl)-3,4-dihydro-2-N,N-dimethylaminopyrimidin-4-(3H)-one] | > 200000 | –
19 | 50 | O=c1cc(Cc2c(F)cccc2F)nc(N2CCSCC2)[nH]1 [MC 1193] | > 200000 | –
20 | 47 | Cc1c(Cc2c(F)cccc2F)nc(N2CCOCC2)[nH]c1=O [MC 1205] | > 200000 | –
21 | 40 | CCC(C)Nc1nc(C(C)c2c(F)cccc2F)cc(=O)[nH]1 (stereo not drawn) [MC 1192] | 86000 | –
22 | 30 | CNc1nc(C(C)c2c(F)cccc2F)c(C)c(=O)[nH]1 (stereo not drawn) [MC 1170] | ≥ 200000 | –
23 | 30 | Cc1c(C(C)c2c(F)cccc2F)nc(NC2CCCCC2)[nH]c1=O (stereo not drawn) [MC 1181] | 58000 | –
24 | 30 | CCCCNc1nc(C(C)c2c(F)cccc2F)cc(=O)[nH]1 (stereo not drawn) [MC 1189] | 52000 | –
25 | 30 | CC(C)Nc1nc(C(C)c2c(F)cccc2F)cc(=O)[nH]1 (stereo not drawn) [MC 1191] | 115000 | –
26 | 20 | CC(c1cc(=O)[nH]c(NC2CCCCC2)n1)c1c(F)cccc1F (stereo not drawn) [MC 1180] | 56000 | –
27 | 20 | CCCCNc1nc(Cc2c(F)cccc2F)c(C)c(=O)[nH]1 [MC 1185] | > 200000 | –
28 | 20 | CCCNc1nc(C(C)c2c(F)cccc2F)cc(=O)[nH]1 (stereo not drawn) [MC 1190] | 103000 | –
29 | 20 | O=c1cc(Cc2c(F)cccc2F)nc(N2CCCCC2)[nH]1 [MC 1194] | > 200000 | –
30 | 20 | Cc1c(Cc2c(F)cccc2F)nc(N(C)C)[nH]c1=O [MC 1195] | > 200000 | –
31 | 18 | Cc1c(C(C)c2c(F)cccc2F)nc(SC2CCCCC2)[nH]c1=O (stereo not drawn) [MC 1174] | > 200000 | –
32 | 10 | CCCCNc1nc(C(C)c2c(F)cccc2F)c(C)c(=O)[nH]1 (stereo not drawn) [MC 1187] | 83000 | –
33 | 8 | CCCCSc1nc(C(C)c2c(F)cccc2F)c(C)c(=O)[nH]1 (stereo not drawn) [MC 1175] | 112000 | –
